Measurements from article PMC9551036, “A selective and orally bioavailable VHL-recruiting PROTAC achieves SMARCA2 degradation in vivo” (Nature Communications, 2022).
“And” between values parts separate entries of the source, which are not always exact repeats. Identical values can stand only once. Like-named read-outs stand apart in the source and are kept apart here.

Assays:
[1] = target: VCB: PROTAC: SMARCA2^BD ternary complex (Homo sapiens, UniProt P40337+P51531); experiment: TR-FRET ternary complex affinity and cooperativity, SMARCA2; assay type: binding; design: P51531-2, residues 1373-1493 with additional N-terminal SM residues; GST (TEV site) (N); His6 (TEV site) (N, cleaved yes); made in house; host or cells: SMARCA2^BD: Escherichia coli BL21(DE3)
Chain of VCB: PROTAC: SMARCA2^BD ternary complex (Homo sapiens, UniProt P40337+P51531) (P51531 with tags, fused parts or gaps isoform P51531-2): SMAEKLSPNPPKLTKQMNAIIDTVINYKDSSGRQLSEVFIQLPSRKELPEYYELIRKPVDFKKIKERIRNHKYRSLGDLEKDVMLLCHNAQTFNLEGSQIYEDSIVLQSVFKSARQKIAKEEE
Chain of VCB: PROTAC: SMARCA2^BD ternary complex (Homo sapiens, UniProt P40337+P51531) (P40337 54-213): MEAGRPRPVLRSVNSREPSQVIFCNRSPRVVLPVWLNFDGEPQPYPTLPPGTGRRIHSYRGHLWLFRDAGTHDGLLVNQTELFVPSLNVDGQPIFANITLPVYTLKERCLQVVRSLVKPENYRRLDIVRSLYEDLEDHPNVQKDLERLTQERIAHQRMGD
Chain of VCB: PROTAC: SMARCA2^BD ternary complex (Homo sapiens, UniProt P40337+P51531) (Q15369 17-112 partner): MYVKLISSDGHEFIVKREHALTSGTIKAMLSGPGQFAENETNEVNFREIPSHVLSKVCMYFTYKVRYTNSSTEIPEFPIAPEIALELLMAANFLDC
Chain of VCB: PROTAC: SMARCA2^BD ternary complex (Homo sapiens, UniProt P40337+P51531) (Q15370 1-104 partner): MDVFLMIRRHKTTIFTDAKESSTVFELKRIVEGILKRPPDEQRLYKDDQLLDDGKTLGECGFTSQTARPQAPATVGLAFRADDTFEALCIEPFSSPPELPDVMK

NCI-H1568 cells = experiment: Cell viability assay (CellTiter Glo) in NCI-H1568; assay type: cell-based, human; conditions: for EC50: NCI-H1568 ([…]), mean ± SD, read-out: EC50 cell proliferation (CellTiter Glo); for IC50: NCI-H1568, (18h), CellTiter Glo, individual replicates, read-out: NCI-H1568 (18h) CTG
Experimental: 500–2000 cells were seeded in white, clear bottom 96-well plates (Corning or Perkin Elmer) in 180–200 µl medium per well. The next day, compounds were added using a digital dispenser and a T0 sample was measured for reference. […], and viability (luminescence) was measured using CellTiter Glo or CellTiter Glo 2.0 (Promega) according to manufacturer’s instructions after equilibrating cells and reagents at room temperature and 10–20 min incubation time while shaking.

[2] = target: T1, VCB: PROTAC: SMARCA2^BD ternary complex (Homo sapiens, UniProt P51531); experiment: TR-FRET ternary complex affinity and cooperativity, SMARCA2; assay type: binding
T1 construct: P51531-2, residues 1373-1493 with additional N-terminal SM residues; GST (TEV site) (N); His6 (TEV site) (N, cleaved yes); made in house; host or cells: SMARCA2^BD: Escherichia coli BL21(DE3)
T1 sequence (P51531 with tags, fused parts or gaps isoform P51531-2): as the sequence (P51531 with tags, fused parts or gaps isoform P51531-2) above

[3] = target: T2, (Homo sapiens, UniProt P51532); experiment: TR-FRET ternary complex affinity and cooperativity, SMARCA4; assay type: binding
T2 construct: P51532, residues 1448–1569 with additional N-terminal SM residues; GST (TEV site) (N); His6 (TEV site) (N, cleaved yes); made in house; host or cells: SMARCA4^BD: Escherichia coli BL21(DE3)
T2 sequence (P51532 1448-1569): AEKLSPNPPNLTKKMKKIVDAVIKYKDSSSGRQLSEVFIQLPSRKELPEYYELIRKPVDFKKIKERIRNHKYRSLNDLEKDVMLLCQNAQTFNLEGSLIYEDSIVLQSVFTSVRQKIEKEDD

SMARCA4 = SMARCA4 (Homo sapiens, UniProt P51532); experiment: SMARCA4 capillary electrophoresis protein assay in RKO cells; assay type: cell-based; design: endogenous in cells; host or cells: RKO, HCT116, LU99, HCC-364, HCT-15, HCC4006, SK-N-AS; conditions: mean ± SD
Chain of SMARCA4 (P51532 whole entry): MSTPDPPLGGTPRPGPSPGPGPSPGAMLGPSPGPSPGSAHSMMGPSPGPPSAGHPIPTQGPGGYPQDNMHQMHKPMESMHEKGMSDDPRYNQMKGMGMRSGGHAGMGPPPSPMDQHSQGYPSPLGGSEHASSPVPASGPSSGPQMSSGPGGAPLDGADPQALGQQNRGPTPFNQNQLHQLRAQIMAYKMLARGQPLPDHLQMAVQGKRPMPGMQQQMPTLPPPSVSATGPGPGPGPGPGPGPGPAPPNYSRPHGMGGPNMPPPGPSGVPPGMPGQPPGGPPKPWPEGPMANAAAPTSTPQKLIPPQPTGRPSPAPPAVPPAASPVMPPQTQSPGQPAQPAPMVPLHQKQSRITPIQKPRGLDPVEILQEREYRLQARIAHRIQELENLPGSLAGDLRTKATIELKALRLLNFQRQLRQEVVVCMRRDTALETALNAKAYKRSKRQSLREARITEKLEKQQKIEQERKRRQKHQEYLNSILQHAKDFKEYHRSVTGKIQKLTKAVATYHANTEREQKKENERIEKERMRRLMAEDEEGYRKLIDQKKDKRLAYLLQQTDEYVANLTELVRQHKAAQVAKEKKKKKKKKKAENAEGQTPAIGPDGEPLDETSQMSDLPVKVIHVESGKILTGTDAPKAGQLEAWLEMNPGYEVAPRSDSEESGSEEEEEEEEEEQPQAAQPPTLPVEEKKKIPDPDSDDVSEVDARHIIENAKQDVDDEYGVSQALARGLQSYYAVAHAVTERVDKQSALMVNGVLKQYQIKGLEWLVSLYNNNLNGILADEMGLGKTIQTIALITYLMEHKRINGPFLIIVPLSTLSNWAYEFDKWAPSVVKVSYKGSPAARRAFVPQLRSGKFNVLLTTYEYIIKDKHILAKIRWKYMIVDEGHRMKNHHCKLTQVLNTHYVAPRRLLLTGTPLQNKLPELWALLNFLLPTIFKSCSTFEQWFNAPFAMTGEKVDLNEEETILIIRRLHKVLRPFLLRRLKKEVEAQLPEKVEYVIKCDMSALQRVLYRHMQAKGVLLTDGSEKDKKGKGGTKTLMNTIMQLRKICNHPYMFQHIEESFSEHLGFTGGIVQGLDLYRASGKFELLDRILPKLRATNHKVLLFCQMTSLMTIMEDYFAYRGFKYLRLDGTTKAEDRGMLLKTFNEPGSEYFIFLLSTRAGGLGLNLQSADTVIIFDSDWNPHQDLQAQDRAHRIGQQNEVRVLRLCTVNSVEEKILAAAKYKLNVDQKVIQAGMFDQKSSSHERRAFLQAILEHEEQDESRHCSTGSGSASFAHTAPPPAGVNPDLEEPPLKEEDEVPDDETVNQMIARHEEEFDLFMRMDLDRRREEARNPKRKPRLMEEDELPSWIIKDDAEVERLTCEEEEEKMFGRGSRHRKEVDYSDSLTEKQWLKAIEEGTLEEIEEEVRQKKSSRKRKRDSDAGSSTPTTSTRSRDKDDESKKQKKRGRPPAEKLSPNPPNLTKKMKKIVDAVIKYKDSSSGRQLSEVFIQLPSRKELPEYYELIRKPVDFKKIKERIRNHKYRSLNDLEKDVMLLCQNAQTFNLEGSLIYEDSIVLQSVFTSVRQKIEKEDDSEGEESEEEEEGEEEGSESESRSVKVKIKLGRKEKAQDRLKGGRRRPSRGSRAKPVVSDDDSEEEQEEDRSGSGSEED
Experimental: 130,000–200,000 cells were seeded in 24-well plates and incubated until settled down or overnight. Compounds were dissolved in DMSO and added to cells in indicated concentrations using a digital dispenser following an optional media change. Cells were incubated for 4 or 18 h as indicated. For SMARCA2/4 half-life determination, 150,000 or 200,000 cells were seeded in 24-well plates. The next day, 50 µg/ml cycloheximide (Sigma) was added and cells were incubated for 1–24 h. For SMARCA2/4 re-synthesis measurements, 200,000 cells were seeded in 24-well plates. The next day, 100 nM compound 6 was added for 4 h to degrade SMARCA2/4, and a sample was taken as baseline for normalisation. To allow re-synthesis, a VHL binder (compound 32, 25 or 50 µM) was then added for 3 or 24 h. Medium was removed, cells were washed with PBS and lysed with 80 µl Lysis Buffer (MSD Tris Lysis Buffer (#R60TX-2) + Halt Inhibitor Cocktail (100x) + Benzonase 0.5 µL/ml). Samples were frozen at −80 °C and thawed at room temperature before use. Samples were transferred to a V-bottom plate and insoluble debris was pelleted by centrifugation for 5 min at maximum speed. The supernatant was transferred to a fresh plate. Master Mix and Ladder were prepared according to manufacturer’s instructions for 12–230 kDa Wes Separation Module, 8 × 25 capillary cartridges, Protein Simple #SM-W004 with Anti-Rabbit Detection Module for Wes, Peggy Sue or Sally Sue, Protein Simple #DM-001. 4.8 µl lysate were mixed with 1.2 µl Master Mix to achieve a protein concentration of ~0.5 µg/µl. Antibodies were diluted in Antibody Diluent II (SMARCA2 Sigma #HPA029981 RRID:AB_10602406 1:25–100, SMARCA4 Cell Signalling #49360 clone D1Q7F RRID:AB_2728743 1:15–120 or Abcam #ab110641 clone EPNCIR111A RRID:AB_10861578 1:60, GAPDH Abcam #ab9485 RRID:AB_307275 1:250). Wes plates were prepared and run according to manufacturer’s instructions. Proteins were quantified with accompanying Compass Software. SMARCA2/4 protein levels were normalised to GAPDH. […] Where applicable, curves were fitted using a 4-parametric logistic model.

PBRM1 BD = target: T3, PBRM1 BD (Homo sapiens, UniProt Q86U86); experiment: TR-FRET binary and ternary (PROTAC + VCB) affinity, PBRM1 bromodomain; assay type: binding; conditions: individual replicates
T3 construct: GST (TEV site) (N); made in house; host or cells: Escherichia coli BL21(DE3)

[4] = PROTAC + VCB, individual replicates, read-out: Ternary SMARCA2 BD EC50 (PROTAC + VCB)
[5] = binary, PROTAC alone, individual replicates, read-out: SMARCA2 BD EC50
[6] = binary, PROTAC alone, individual replicates, read-out: SMARCA4 BD EC50
[7] = PROTAC + VCB, read-out: Ternary PBRM1 BD EC50 (PROTAC + VCB)
[8] = binary, PROTAC alone, read-out: PBRM1 EC50

Compound	EC50 [1, 4]	EC50 ([1]; TR-FRET competition for SMARCA2BD, + VCB, mean ± SD, read-out: TR-FRET Ternary SMARCA2BD EC50 (PROTAC + VCB))	EC50 (NCI-H1568 cells)	IC50 (NCI-H1568 cells)	EC50 ([2]; TR-FRET competition for SMARCA2BD, without VCB, mean ± SD, read-out: TR-FRET SMARCA2BD EC50)	EC50 [2, 5]	EC50 ([3]; TR-FRET competition for SMARCA4BD, without VCB, mean ± SD, read-out: TR-FRET SMARCA4BD EC50)	EC50 [3, 6]	DC50 (SMARCA4; RKO (4 h))	DC50 (SMARCA4; RKO (18 h))	SMARCA4 Dmax (SMARCA4; RKO (18 h))	EC50 (PBRM1 BD; [7])	EC50 (PBRM1 BD; [8])
Cc1ncsc1-c1ccc(CNC(=O)[C@@H]2C[C@@H](O)CN2C(=O)[C@@H](NC(=O)C2(F)CC2)C(C)(C)C)c(OCCCCN2CCC(c3ccc4c(c3)n(C3CCCC3)c3nc(=O)c5c(Br)cccc5n43)CC2)c1 [compound 23]	115 nM and 127 nM and 132 nM and 372 nM	164 ± 124 nM	104 ± 27 nM	133 nM and 78.5 nM and 108 nM	98 ± 12 nM	88.5 nM and 111 nM and 107 nM and 87.4 nM	174 ± 21 nM	148 nM and 197 nM and 173 nM and 183 nM	> 25000 nM	1260 nM	76 ± 30%	18.3 nM and 22.9 nM and 22.1 nM	46.2 nM and 37.9 nM and 38.2 nM and 36.1 nM
CN1CCN(c2nc(=O)c3c(Br)cccc3o2)CC1 [compound 15]	> 10000 nM	–	> 10000 nM	> 10000 nM	–	> 10000 nM	–	> 10000 nM	> 25000 nM	> 25000 nM	–	> 10000 nM	> 10000 nM
